Assay results: patent EP3184514A1, “AUTOPHAGY INHIBITORS” (Deutsches Krebsforschungszentrum, priority 2015, dated 2017)
Structures can show the parent of a compound that is named as a salt.

Key:
LC3 proteins = experiment: ITC and NMR titrations; type: binding; conditions: by ITC and NMR
Description: All ITC experiments were performed at 25 °C using a VP-ITC microcalorimeter (MicroCal Inc, MA, USA) and analyzed with the ITC-Origin 7.0 software (MicroCal Inc.) based on a "one-site binding" reaction. […] Dilution heat of both compounds was measured upon titration of the stocks into buffer. All experiments were performed on a Bruker Avance spectrometer operating at a proton frequency of 500, 600 and 700 MHz at 298 K.

LC3B [1] = experiment: cellular autophagy screening: LC3B spots by immunocytochemistry and automated confocal imaging; type: cell-based; conditions: relative to negative DMSO control, 100 µM, 1 hour; for LC3B inhibition cell based Fold increase of LC3B spots [DMSO control 1.0]: Table 1-a, n.e. means no effect
Description: For screening purposes, cells were seeded in 384 well plates and left over night for attachment.
Afterwards, medium was removed and 4 % (w/v) paraformaldehyde (PFA) in PBS buffer was added to the cells for 20 minutes, incubated at room temperature. Cells were permeabilized with 0.1 % (v/v) Triton X-100 for 10 min at room temperature and washed with PBS. Cells were blocked with 3 % (w/v) bovine serum albumin (BSA) in PBS for 45 minutes at 37 °C and then incubated with anti-LC3B (PM036, MBL) or anti-p62 (PM045 or M162-3, MBL) primary antibody diluted in 0.3 % BSA (1:2000 or 1:500) for 1.5-2 hours at 37 °C. Cells were washed three times with PBS.
384 well plates were then analyzed with an automated confocal microscope Opera (PerkinElmer) enabling high throughput high content screening image analysis. […] A water immersion 60x objective was used for optical slicing and stacking (5x0.5 µm stacks). […] Signal was detected with a fast gated CCD camera. Acapella software (PerkinElmer) is an algorithm based high content imaging and analysis software used in multi-parametric multiplex assays. Acapella was used to follow cell viability (i.e. number of cells) and the number of LC3B and p62 spots per cell.
The LC3B protein is a ubiquitin-like protein that can be conjugated to phosphatidylethanolamine (PE) in the membrane of the incipient autophagosome. The nonlipidated and lipidated forms are usually referred to as LC3B-I and LC3B-II, respectively. […] Autophagic flux is often inferred on the basis of LC3B-II turnover, measured by western blot (WB) or immunofluorescence (IF) in the presence and absence of lysosomal degradation. […] Lysosomal degradation can be prevented e.g. through the use of compounds that neutralize the lysosomal pH such as Bafilomycin A1 (BafA1) or chloroquine (CQ). […] An additive or supra-additive effect in LC3B-II levels (WB) and LC3B-positive punctae numbers (IF) may indicate that the treatment enhances autophagic flux. […] This assay can be complemented by simultaneous monitoring of autophagosomal substrates or autophagosomal substrate receptors (e.g. SQSTM1/p62) by WB and/or IF. For example, an increase in LC3B-II levels in combination with the accumulation of SQSTM1/p62 is indicative of a blockage of the autophagy pathway at terminal stages.

LC3B [2] = molecular target: T1, LC3B (Homo sapiens, UniProt Q9GZQ8); experiment: AlphaScreen interaction displacement assay (GST-LC3B / biotin-LIRtide); type: binding; conditions: Table 1-a; n.e. means no effect
T1 construct: made in house; host or cells: E. coli Rosetta (DE3)
Description: The AlphaScreen assay contained 50 mM Tris (pH 7.5), 100 mM NaCl, 0.01% Tween 20, 2 mM DTT, 1 % DMSO and 2-30 nM GST-LC3B and biotin-LIRtide 2-30 nM. The concentrations of GST-LC3B and biotin-LIRtide were experimentally chosen from a cross-titration assay exploring the different combinations of for each batch of protein used and when a new batch of buffer was prepared.
A gene encoding for human LC3B protein inserted in a pET-GST expression vector was used as a template. Rosetta (DE3) competent cells were transformed by started procedure, plated on an LB agar plate with ampicillin (100 µg/ml) and left overnight at 37 °C. Overnight culture was prepared from a single colony and shaken at 180 rpm at 37 °C. LB medium with ampicillin was inoculated with overnight culture (10 ml per 500 ml of LB) and shaken until the optical density at 600 nm (OD600) reached a value of approximately 0.6. Protein expression was then induced with 400 µM IPTG and further incubated for 4 hours. Bacterial culture was centrifuged for 20 minutes at 6000 rpm at 4 °C. The pellet was then resuspended in lysis buffer (20 mM TRIS-HCl pH 7.5, 10 mM EDTA, 5 mM EGTA, 150 mM NaCl, 0.5 % NP40, 1 % Triton X-100, 1 mM DTT, 2 mg/ml lysozyme, 0.05 U/µl benzonase, 1x protease inhibitor cocktail). Lysate was then stored at -20 °C over night. Sample was thawed in water bath and sonicated on ice (40 % amplitude, 30 seconds pulse/30 seconds pause cycle). Lysate was centrifuged at 10000xg at 4 °C for half an hour. Meanwhile, 500 µl of glutathione sepharose beads was equilibrated with lysis buffer and then added to the supernatant. The mixture was incubated and rotated at room temperature for 2 hours. After binding of the protein to the beads, beads were spun down at 500xg at 4 °C for 5 minutes. Pellet was then washed with cold wash buffer at least four times (20 mM Tris-HCl pH 7.5, 10 mM EDTA, 5 mM EGTA, 150 mM NaCl, 1 mM DTT), dried and stored in 5 % glycerol at 4 °C.

U2OS cells = experiment: autophagic flux by confocal microscopy and western blotting; type: cell-based, Human; conditions: 100 nM, alone
Description: […]. After harvesting, cells were lysed with radioimmunoprecipitation assay (RIPA) buffer (50 mM Tris-HCl, pH 7.5, 150 mM NaCl, 0.5 % deoxycholate, 1 % Triton X-100, 0.1 % SDS and 1x protease inhibitors) and left on ice for 30 minutes. Cell lysates were clarified by centrifugation at 10000xg for 20 min at 4 °C. Protein concentrations of the supernatants were determined by BCA assay and the absorbance was measured at 562 nm. SDS-PAGE and WB was performed.
For screening purposes, cells were seeded in 384 well plates and left over night for attachment. […]. For controls, cells were treated with 250 nM torin and/or 100 nM BafA1 for 2 hours.
Afterwards, medium was removed and 4 % (w/v) paraformaldehyde (PFA) in PBS buffer was added to the cells for 20 minutes, incubated at room temperature. Cells were permeabilized with 0.1 % (v/v) Triton X-100 for 10 min at room temperature and washed with PBS. Cells were blocked with 3 % (w/v) bovine serum albumin (BSA) in PBS for 45 minutes at 37 °C and then incubated with anti-LC3B (PM036, MBL) or anti-p62 (PM045 or M162-3, MBL) primary antibody diluted in 0.3 % BSA (1:2000 or 1:500) for 1.5-2 hours at 37 °C. Cells were washed three times with PBS. Secondary Alexa Fluor 488 - labeled antibodies (A-11008, Invitrogen) were diluted in 0.3 % BSA (1:2500) and incubated on cells for 15 minutes at 37 °C. Cells were washed once with PBS, incubated with DRAQ5 (#4084, Cell Signaling) diluted in PBS (1:5000) for 10 minutes and washed three times with PBS.
384 well plates were then analyzed with an automated confocal microscope Opera (PerkinElmer) enabling high throughput high content screening image analysis. […] Signal was detected with a fast gated CCD camera. […]
The LC3B protein is a ubiquitin-like protein that can be conjugated to phosphatidylethanolamine (PE) in the membrane of the incipient autophagosome. […] Autophagic flux is often inferred on the basis of LC3B-II turnover, measured by western blot (WB) or immunofluorescence (IF) in the presence and absence of lysosomal degradation. […]

SMILES | Kd (LC3 proteins) | LC3B inhibition cell based Fold increase of LC3B spots [DMSO control 1.0] (LC3B [1]) | LC3B inhibition cell free IC50 (LC3B [2]) | amount of LC3B-positive spots and lipidated LC3B (LC3B-II) (U2OS cells) | LC3B Inhibition cell based Fold increase of LC3B spots (LC3B [1]; Table 2a)
CO[C@@H]1[C@@H](OC(N)=O)[C@@H](O)[C@H](Oc2ccc3c(O)c(NC(=O)c4ccc(O)c(CC=C(C)C)c4)c(=O)oc3c2C)OC1(C)C [Compound 2-0, Novobiocin Sodium Salt] | 5 to 50 µM |  |  |  | 
Fc1ccc(CN2CN=C(SCc3ccc(Cl)cc3)NC2)cc1 [Compound I-15, 6-((4-chlorobenzyl)thio)-3-(4-fluorobenzyl)-1,2,3,4-tetrahydro-1,3,5-triazine] |  | 5.9 | n.e |  | 
Fc1ccc(CN2CN=C(SCc3cccc(Oc4ccccc4)c3)NC2)cc1 [Compound I-16, 3-(4-fluorobenzyl)-6-((3-phenoxybenzyl)thio)-1,2,3,4-tetrahydro-1,3,5-triazine] |  | n.e. | n.e |  | 
Fc1ccc(CN2CN=C(SCc3ccc(Br)cc3)NC2)cc1F [Compound I-17, 6-((4-bromobenzyl)thio)-3-(3,4-difluorobenzyl)-1,2,3,4-tetrahydro-1,3,5-triazine] |  | 4.2 | n.e |  | 
CO/C1=C\C(C)=C\[C@@H](C)[C@@H](O)[C@@H](C)C/C(C)=C/C=C/[C@H](OC)[C@@H]([C@@H](C)[C@@H](O)[C@H](C)[C@@]2(O)C[C@@H](O)[C@H](C)[C@@H](C(C)C)O2)OC1=O [bafilomycin A1, reference compound] |  | 5.5 |  | increased | 5.5
